Laboratory results reported in patent US12233161B1, “Lipids and lipid nanoparticle formulations” (LONGUIDE BIOPHARMA CORPORATION, priority 2024, dated 2025).

How the values were obtained:
[1] = Potential characterization of nucleic acid lipid nanoparticle preparations; type: physicochemical
Method in brief: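 Nanoparticles (about 0.04 mg/mL mRNA) were diluted in ultrapure water for Malvern ZEN3700 measurement: 20 μL into 780 μL for potential alone, or 27.5 μL into 200 μL for DLS particle size followed by addition of 600 μL water for potential.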

mice = assay: In vivo delivery of FLuc-mRNA lipid nanoparticles in mice, in vivo imaging (IVIS)
Method in brief: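 Mice (n=3) received about 75 μL FLuc-mRNA LNP per mouse intramuscularly (rectus femoris), intravenously (tail vein), intraperitoneally or subcutaneously (back). After injection, D-luciferin (200 μL, 15 mg/mL) was given i.p. 10-15 min before IVIS imaging.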

[2] = Particle size and PDI of nucleic acid lipid nanoparticle preparations by dynamic light scattering; type: physicochemical
Method in brief: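 Nanoparticle suspension (about 0.04 mg/mL mRNA) diluted in ultrapure water, mixed by gentle pipetting; particle size measured by dynamic light scattering. Zeta potential measured on the recovered sample after further dilution in ultrapure water.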

[3] = DMG-PEG2000:DSPC:Chol:compound 1.50:30.00:33.50:35.00, N/P 9
[4] = DMG-PEG2000:DSPC:Chol:compound 1.50:30.00:48.50:20.00, N/P 9
[5] = DMG-PEG2000:DSPC:Chol:compound 1.50:30.00:58.50:10.00, N/P 9
[6] = DMG-PEG2000:DSPC:Chol:compound 1.50:30.00:63.50:5.00, N/P 9
[7] = DMG-PEG2000:DSPC:Chol:Lipid 1.50:11.50:17.00:70.00, N/P 30, IV, liver
[8] = DMG-PEG2000:DSPC:Chol:Lipid 1.50:11.50:17.00:70.00, N/P 30, IV, lung
[9] = DMG-PEG2000:DSPC:Chol:Lipid 1.50:11.50:17.00:70.00, N/P 30, IV, spleen
[10] = DMG-PEG2000:DSPC:Chol:Lipid 1.50:11.50:37.00:50.00, N/P 30, IV, liver
[11] = DMG-PEG2000:DSPC:Chol:Lipid 1.50:11.50:37.00:50.00, N/P 30, IV, lung
[12] = DMG-PEG2000:DSPC:Chol:Lipid 1.50:11.50:37.00:50.00, N/P 30, IV, spleen
[13] = DMG-PEG2000:DSPC:Chol:Lipid 1.50:11.50:57.00:30.00, N/P 30, IV, liver
[14] = DMG-PEG2000:DSPC:Chol:Lipid 1.50:11.50:57.00:30.00, N/P 30, IV, lung
[15] = DMG-PEG2000:DSPC:Chol:Lipid 1.50:11.50:57.00:30.00, N/P 30, IV, spleen
[16] = DMG-PEG2000:DSPC:Chol:Lipid 2.50:11.50:51.00:35.00, N/P 18, IV, liver
[17] = DMG-PEG2000:DSPC:Chol:Lipid 2.50:11.50:51.00:35.00, N/P 18, IV, lung
[18] = DMG-PEG2000:DSPC:Chol:Lipid 2.50:11.50:51.00:35.00, N/P 18, IV, spleen
[19] = DMG-PEG2000:DSPC:Chol:Lipid 1.50:11.50:17.00:70.00, N/P 30, mRNA LNP
[20] = DMG-PEG2000:DSPC:Chol:Lipid 1.50:11.50:37.00:50.00, N/P 30, mRNA LNP
[21] = DMG-PEG2000:DSPC:Chol:Lipid 1.50:11.50:57.00:30.00, N/P 30, mRNA LNP
[22] = DMG-PEG2000:DSPC:Chol:Lipid 1.71:12.98:45.31:40.00, N/P 30, mRNA LNP
[23] = DMG-PEG2000:DSPC:Chol:Lipid 2.50:11.50:51.00:35.00, N/P 18, mRNA LNP

For `CCCCCCCCCCCCOC(=O)C(O)CN(CCCN(C)CCCN(CC(O)C(=O)OCCCCCCCCCCCC)CC(O)C(=O)OCCCCCCCCCCCC)CC(O)C(=O)OCCCCCCCCCCCC` (centres unmarked) [Compound L0261], the “Zeta potential (mV)” value [1, 3] was 16.03 mV, the “Zeta potential (mV)” value [1, 4] was 14.53 mV and the “Zeta potential (mV)” value [1, 5] was 15.47 mV. For the same compound, the “Zeta potential (mV)” value [1, 6] was 16.57 mV, the IVIS (mice; DMG-PEG2000:DSPC:Chol:Lipid 1.50:11.50:17.00:70.00, N/P 30, IV, body) was 4.64 × 10^7 and the “% of organ targeting” value (mice; [7]) was 1.68%. For the same compound, the IVIS (mice; [7]) was 1.65 × 10^6, the “% of organ targeting” value (mice; [8]) was 91.29% and the IVIS (mice; [8]) was 8.93 × 10^7. The “% of organ targeting” value (mice; [9]) was 7.03%, the IVIS (mice; [9]) was 6.88 × 10^6 and the IVIS (mice; DMG-PEG2000:DSPC:Chol:Lipid 1.50:11.50:37.00:50.00, N/P 30, IV, body) was 1.09 × 10^8. For the same compound, the “% of organ targeting” value (mice; [10]) was 30.20%, the IVIS (mice; [10]) was 1.83 × 10^7 and the “% of organ targeting” value (mice; [11]) was 30.87%. For the same compound, the IVIS (mice; [11]) was 1.87 × 10^7, the “% of organ targeting” value (mice; [12]) was 38.93% and the IVIS (mice; [12]) was 2.36 × 10^7. For the same compound, the IVIS (mice; DMG-PEG2000:DSPC:Chol:Lipid 1.50:11.50:57.00:30.00, N/P 30, IV, body) was 5.88 × 10^7, the “% of organ targeting” value (mice; [13]) was 17.84% and the IVIS (mice; [13]) was 1.20 × 10^7. The “% of organ targeting” value (mice; [14]) was 7.50%, the IVIS (mice; [14]) was 5.06 × 10^6 and the “% of organ targeting” value (mice; [15]) was 74.66%. The IVIS (mice; [15]) was 5.03 × 10^7, the IVIS (mice; DMG-PEG2000:DSPC:Chol:Lipid 1.71:12.98:45.31:40.00, N/P 30, IM, whole body scan) was 5.24 × 10^6 and the IVIS (mice; DMG-PEG2000:DSPC:Chol:Lipid 2.50:11.50:51.00:35.00, N/P 18, IV, body) was 4.72 × 10^7. The “% of organ targeting” value (mice; [16]) was 6.56%, the IVIS (mice; [16]) was 3.81 × 10^6 and the “% of organ targeting” value (mice; [17]) was 1.88%. The IVIS (mice; [17]) was 1.09 × 10^6, the “% of organ targeting” value (mice; [18]) was 91.57% and the IVIS (mice; [18]) was 5.33 × 10^7. It also gave an IVIS (mice; IV, body, DMG-PEG2000:DSPC:Chol:compound 1.50:30.00:33.50:35.00, N/P 9, Fluc-mRNA) of 2.66E+07, an IVIS (mice; IV, body, DMG-PEG2000:DSPC:Chol:compound 1.50:30.00:48.50:20.00, N/P 9, Fluc-mRNA) of 1.18E+07 and an IVIS (mice; IV, body, DMG-PEG2000:DSPC:Chol:compound 1.50:30.00:58.50:10.00, N/P 9, Fluc-mRNA) of 2.03E+06. The IVIS (mice; IV, body, DMG-PEG2000:DSPC:Chol:compound 1.50:30.00:63.50:5.00, N/P 9, Fluc-mRNA) was 1.06E+06, the “% of organ targeting” value (mice; IV, liver, DMG-PEG2000:DSPC:Chol:compound 1.50:30.00:33.50:35.00, N/P 9) was 3.86% and the IVIS (mice; IV, liver, DMG-PEG2000:DSPC:Chol:compound 1.50:30.00:33.50:35.00, N/P 9, Fluc-mRNA) was 1.00E+06. The “% of organ targeting” value (mice; IV, liver, DMG-PEG2000:DSPC:Chol:compound 1.50:30.00:48.50:20.00, N/P 9) was 8.55%, the IVIS (mice; IV, liver, DMG-PEG2000:DSPC:Chol:compound 1.50:30.00:48.50:20.00, N/P 9, Fluc-mRNA) was 1.65E+06 and the “% of organ targeting” value (mice; IV, liver, DMG-PEG2000:DSPC:Chol:compound 1.50:30.00:58.50:10.00, N/P 9) was 36.36%. For the same compound, the IVIS (mice; IV, liver, DMG-PEG2000:DSPC:Chol:compound 1.50:30.00:58.50:10.00, N/P 9, Fluc-mRNA) was 7.14E+05, the “% of organ targeting” value (mice; IV, liver, DMG-PEG2000:DSPC:Chol:compound 1.50:30.00:63.50:5.00, N/P 9) was 26.05% and the IVIS (mice; IV, liver, DMG-PEG2000:DSPC:Chol:compound 1.50:30.00:63.50:5.00, N/P 9, Fluc-mRNA) was 1.91E+05. The “% of organ targeting” value (mice; IV, lung, DMG-PEG2000:DSPC:Chol:compound 1.50:30.00:33.50:35.00, N/P 9) was 2.02%, the IVIS (mice; IV, lung, DMG-PEG2000:DSPC:Chol:compound 1.50:30.00:33.50:35.00, N/P 9, Fluc-mRNA) was 5.23E+05 and the “% of organ targeting” value (mice; IV, lung, DMG-PEG2000:DSPC:Chol:compound 1.50:30.00:48.50:20.00, N/P 9) was 4.05%. The IVIS (mice; IV, lung, DMG-PEG2000:DSPC:Chol:compound 1.50:30.00:48.50:20.00, N/P 9, Fluc-mRNA) was 7.80E+05, the “% of organ targeting” value (mice; IV, lung, DMG-PEG2000:DSPC:Chol:compound 1.50:30.00:58.50:10.00, N/P 9) was 4.39% and the IVIS (mice; IV, lung, DMG-PEG2000:DSPC:Chol:compound 1.50:30.00:58.50:10.00, N/P 9, Fluc-mRNA) was 8.62E+04. For the same compound, the “% of organ targeting” value (mice; IV, lung, DMG-PEG2000:DSPC:Chol:compound 1.50:30.00:63.50:5.00, N/P 9) was 7.91%, the IVIS (mice; IV, lung, DMG-PEG2000:DSPC:Chol:compound 1.50:30.00:63.50:5.00, N/P 9, Fluc-mRNA) was 5.78E+04 and the “% of organ targeting” value (mice; IV, spleen, DMG-PEG2000:DSPC:Chol:compound 1.50:30.00:33.50:35.00, N/P 9) was 94.12%. For the same compound, the IVIS (mice; IV, spleen, DMG-PEG2000:DSPC:Chol:compound 1.50:30.00:33.50:35.00, N/P 9, Fluc-mRNA) was 2.44E+07, the “% of organ targeting” value (mice; IV, spleen, DMG-PEG2000:DSPC:Chol:compound 1.50:30.00:48.50:20.00, N/P 9) was 87.40% and the IVIS (mice; IV, spleen, DMG-PEG2000:DSPC:Chol:compound 1.50:30.00:48.50:20.00, N/P 9, Fluc-mRNA) was 1.68E+07. For the same compound, the “% of organ targeting” value (mice; IV, spleen, DMG-PEG2000:DSPC:Chol:compound 1.50:30.00:58.50:10.00, N/P 9) was 59.25%, the IVIS (mice; IV, spleen, DMG-PEG2000:DSPC:Chol:compound 1.50:30.00:58.50:10.00, N/P 9, Fluc-mRNA) was 1.16E+06 and the “% of organ targeting” value (mice; IV, spleen, DMG-PEG2000:DSPC:Chol:compound 1.50:30.00:63.50:5.00, N/P 9) was 66.04%. For the same compound, the IVIS (mice; IV, spleen, DMG-PEG2000:DSPC:Chol:compound 1.50:30.00:63.50:5.00, N/P 9, Fluc-mRNA) was 4.83E+05, the “tissue-targeting specificity (lung vs spleen depending on molar percentage of compound)” value (mice; certain formulations, Table 2) was “strong tissue-targeting specificity” and the PDI [2, 19] was 0.17 ± 0.01. The Particle size [2, 19] was 118.13 ± 0.40 nm, the PDI [2, 20] was 0.20 ± 0.01 and the Particle size [2, 20] was 130.87 ± 0.87 nm. For the same compound, the PDI [2, 21] was 0.13 ± 0.02, the Particle size [2, 21] was 88.09 ± 0.52 nm and the PDI [2, 22] was 0.24 ± 0.02. It also gave a Particle size [2, 22] of 94.33 ± 1.52 nm, a PDI [2, 23] of 0.17 ± 0.01 and a Particle size [2, 23] of 99.13 ± 0.78 nm. The PDI [2, 3] was 0.20, the “Particle size (nm)” value [2, 3] was 141.40 nm and the PDI [2, 4] was 0.21. For the same compound, the “Particle size (nm)” value [2, 4] was 107.23 nm, the PDI [2, 5] was 0.21 and the “Particle size (nm)” value [2, 5] was 136.30 nm. The PDI [2, 6] was 0.16 and the “Particle size (nm)” value [2, 6] was 128.87 nm.
